{"source": "ChEMBL document CHEMBL4507299", "about": "“Data for DCP probe PF-04554878” (2021)", "key": {"[1]": {"target": "T1, Serine/threonine-protein kinase Chk1 (Homo sapiens) (UniProt O14757)", "T1 sequence (whole entry)": "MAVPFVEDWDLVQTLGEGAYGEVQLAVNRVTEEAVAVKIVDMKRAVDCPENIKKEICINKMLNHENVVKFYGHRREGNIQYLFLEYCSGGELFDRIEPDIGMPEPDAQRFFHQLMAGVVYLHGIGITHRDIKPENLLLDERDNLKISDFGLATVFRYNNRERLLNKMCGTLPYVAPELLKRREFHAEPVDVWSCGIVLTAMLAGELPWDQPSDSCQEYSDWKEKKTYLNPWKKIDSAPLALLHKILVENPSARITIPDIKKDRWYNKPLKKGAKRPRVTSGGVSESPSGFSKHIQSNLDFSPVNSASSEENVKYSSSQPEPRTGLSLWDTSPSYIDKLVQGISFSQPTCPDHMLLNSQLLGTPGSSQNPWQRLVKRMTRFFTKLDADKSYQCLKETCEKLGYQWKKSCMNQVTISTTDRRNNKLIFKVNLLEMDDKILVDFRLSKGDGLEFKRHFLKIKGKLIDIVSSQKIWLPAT"}, "[2]": {"target": "GABA-A receptor; anion channel (Rattus norvegicus) (UniProt O09028+P15431+P18506+P18508+P19969+P20236+P23574+P23576+P28471+P28473+P30191+P62813+P63079+P63138+Q91ZM7+Q9ES14)", "conditions": "Compound concentration 10.0 uM"}, "[3]": {"target": "Activin receptor type-2A (Homo sapiens) (UniProt P27037)"}, "[4]": {"target": "Ribosomal protein S6 kinase alpha-4 (Homo sapiens) (UniProt O75676)"}, "[5]": {"target": "Cytoplasmic tyrosine-protein kinase BMX (Homo sapiens) (UniProt P51813)"}, "[6]": {"target": "Cyclin-dependent kinase-like 2 (Homo sapiens) (UniProt Q92772)"}, "[7]": {"target": "Alpha-1B adrenergic receptor (Homo sapiens) (UniProt P35368)", "conditions": "Compound concentration 10.0 uM"}, "[8]": {"system": "Tyrosine-protein kinase ABL1 (Homo sapiens), P00519 [Q252H]"}, "[9]": {"target": "Serine/threonine-protein kinase mTOR (Homo sapiens) (UniProt P42345)"}, "[10]": {"target": "Calcium/calmodulin-dependent protein kinase type II subunit gamma (Homo sapiens) (UniProt Q13555)"}, "[11]": {"target": "Mitogen-activated protein kinase 12 (Homo sapiens) (UniProt P53778)"}, "[12]": {"target": "Cyclin-dependent kinase 11A (Homo sapiens) (UniProt Q9UQ88)"}, "[13]": {"target": "Mitogen-activated protein kinase 4 (Homo sapiens) (UniProt P31152)"}, "[14]": {"target": "Dual specificity tyrosine-phosphorylation-regulated kinase 1B (Homo sapiens) (UniProt Q9Y463)", "sequence (Q9Y463 whole entry, looked up)": "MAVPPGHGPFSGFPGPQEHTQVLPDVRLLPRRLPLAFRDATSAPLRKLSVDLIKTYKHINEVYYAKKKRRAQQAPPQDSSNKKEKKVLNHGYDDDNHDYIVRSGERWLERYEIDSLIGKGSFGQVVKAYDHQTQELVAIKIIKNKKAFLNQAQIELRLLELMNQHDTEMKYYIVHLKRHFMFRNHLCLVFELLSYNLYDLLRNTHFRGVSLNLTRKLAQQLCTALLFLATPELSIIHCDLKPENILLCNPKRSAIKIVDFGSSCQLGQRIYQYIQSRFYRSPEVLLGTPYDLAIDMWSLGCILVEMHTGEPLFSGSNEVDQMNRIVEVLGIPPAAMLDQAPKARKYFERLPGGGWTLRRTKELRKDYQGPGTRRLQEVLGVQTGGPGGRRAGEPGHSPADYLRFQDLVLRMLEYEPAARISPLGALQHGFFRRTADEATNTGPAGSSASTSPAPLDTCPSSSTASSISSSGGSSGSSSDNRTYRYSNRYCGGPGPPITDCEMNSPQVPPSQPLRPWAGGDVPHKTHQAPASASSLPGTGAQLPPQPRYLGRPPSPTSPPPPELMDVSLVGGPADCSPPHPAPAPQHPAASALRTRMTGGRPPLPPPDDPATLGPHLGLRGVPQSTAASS"}, "[15]": {"target": "Dual specificity mitogen-activated protein kinase kinase 4 (Homo sapiens) (UniProt P45985)", "sequence (P45985 whole entry)": "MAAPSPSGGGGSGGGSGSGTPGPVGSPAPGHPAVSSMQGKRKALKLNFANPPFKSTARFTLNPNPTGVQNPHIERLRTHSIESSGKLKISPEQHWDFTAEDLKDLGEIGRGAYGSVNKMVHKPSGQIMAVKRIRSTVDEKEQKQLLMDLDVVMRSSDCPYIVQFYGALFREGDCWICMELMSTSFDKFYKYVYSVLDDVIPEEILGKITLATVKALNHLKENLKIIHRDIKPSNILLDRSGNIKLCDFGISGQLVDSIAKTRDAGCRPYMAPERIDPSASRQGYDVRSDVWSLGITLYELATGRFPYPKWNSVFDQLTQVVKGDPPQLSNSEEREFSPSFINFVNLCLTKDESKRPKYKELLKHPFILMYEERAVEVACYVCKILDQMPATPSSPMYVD"}, "[16]": {"target": "Ribosomal protein S6 kinase alpha-3 (Homo sapiens) (UniProt P51812)"}, "[17]": {"target": "Phosphorylase b kinase regulatory subunit alpha, liver isoform (Homo sapiens) (UniProt P46019)"}, "[18]": {"target": "Maternal embryonic leucine zipper kinase (Homo sapiens) (UniProt Q14680)"}, "[19]": {"target": "Mitogen-activated protein kinase kinase kinase 4 (Homo sapiens) (UniProt Q9Y6R4)"}, "[20]": {"system": "Proto-oncogene tyrosine-protein kinase receptor Ret (Homo sapiens), P07949 [V804L]"}, "[21]": {"target": "Mitogen-activated protein kinase 7 (Homo sapiens) (UniProt Q13164)"}, "[22]": {"target": "Alpha-1A adrenergic receptor (Homo sapiens) (UniProt P35348)", "conditions": "Compound concentration 10.0 uM"}, "[23]": {"system": "ALK tyrosine kinase receptor (Homo sapiens), Q9UM73 [L1196M]"}, "[24]": {"system": "Receptor-type tyrosine-protein kinase FLT3 (Homo sapiens), P36888 [D835H]"}, "[25]": {"target": "Tyrosine-protein kinase receptor Tie-1 (Homo sapiens) (UniProt P35590)"}, "[26]": {"target": "Dual specificity protein kinase CLK3 (Homo sapiens) (UniProt P49761)"}, "[27]": {"target": "Serine/threonine-protein kinase 25 (Homo sapiens) (UniProt O00506)", "sequence (O00506 whole entry, looked up)": "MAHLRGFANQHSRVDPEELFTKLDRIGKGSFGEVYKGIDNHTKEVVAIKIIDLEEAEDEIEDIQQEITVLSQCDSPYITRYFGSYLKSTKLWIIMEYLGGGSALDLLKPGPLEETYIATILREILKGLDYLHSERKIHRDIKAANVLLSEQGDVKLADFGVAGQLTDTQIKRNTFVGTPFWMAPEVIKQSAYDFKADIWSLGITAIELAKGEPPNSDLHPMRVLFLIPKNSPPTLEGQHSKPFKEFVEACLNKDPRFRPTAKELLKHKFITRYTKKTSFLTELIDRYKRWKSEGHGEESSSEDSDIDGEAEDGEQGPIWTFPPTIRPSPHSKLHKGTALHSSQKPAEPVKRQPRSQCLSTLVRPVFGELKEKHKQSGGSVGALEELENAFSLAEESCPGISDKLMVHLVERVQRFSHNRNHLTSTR"}, "[28]": {"system": "Tyrosine-protein kinase ABL1 (Homo sapiens), P00519 [F317I]"}, "[29]": {"target": "Discoidin domain-containing receptor 2 (Homo sapiens) (UniProt Q16832)"}, "[30]": {"target": "Calcium/calmodulin-dependent protein kinase type 1B (Homo sapiens) (UniProt Q6P2M8)"}, "[31]": {"target": "Cyclin-dependent kinase 9 (Homo sapiens) (UniProt P50750)"}, "[32]": {"target": "Tyrosine-protein kinase receptor TYRO3 (Homo sapiens) (UniProt Q06418)"}, "[33]": {"target": "Serine/threonine-protein kinase Sgk3 (Homo sapiens) (UniProt Q96BR1)"}, "[34]": {"target": "Serine/threonine-protein kinase Sgk2 (Homo sapiens) (UniProt Q9HBY8)", "sequence (Q9HBY8 whole entry)": "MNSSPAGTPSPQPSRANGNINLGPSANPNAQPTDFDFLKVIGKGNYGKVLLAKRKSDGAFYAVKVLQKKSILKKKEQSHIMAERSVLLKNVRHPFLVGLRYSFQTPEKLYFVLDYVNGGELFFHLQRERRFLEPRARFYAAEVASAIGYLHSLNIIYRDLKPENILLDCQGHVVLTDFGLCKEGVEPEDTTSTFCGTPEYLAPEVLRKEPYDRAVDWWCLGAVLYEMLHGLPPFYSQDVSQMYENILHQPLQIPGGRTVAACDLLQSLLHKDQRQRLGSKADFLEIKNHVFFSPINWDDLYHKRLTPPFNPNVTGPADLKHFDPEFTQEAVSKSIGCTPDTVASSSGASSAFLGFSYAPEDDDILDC"}, "[35]": {"target": "Protein-tyrosine kinase 2-beta (Homo sapiens, UniProt Q14289)", "sequence (Q14289 whole entry)": "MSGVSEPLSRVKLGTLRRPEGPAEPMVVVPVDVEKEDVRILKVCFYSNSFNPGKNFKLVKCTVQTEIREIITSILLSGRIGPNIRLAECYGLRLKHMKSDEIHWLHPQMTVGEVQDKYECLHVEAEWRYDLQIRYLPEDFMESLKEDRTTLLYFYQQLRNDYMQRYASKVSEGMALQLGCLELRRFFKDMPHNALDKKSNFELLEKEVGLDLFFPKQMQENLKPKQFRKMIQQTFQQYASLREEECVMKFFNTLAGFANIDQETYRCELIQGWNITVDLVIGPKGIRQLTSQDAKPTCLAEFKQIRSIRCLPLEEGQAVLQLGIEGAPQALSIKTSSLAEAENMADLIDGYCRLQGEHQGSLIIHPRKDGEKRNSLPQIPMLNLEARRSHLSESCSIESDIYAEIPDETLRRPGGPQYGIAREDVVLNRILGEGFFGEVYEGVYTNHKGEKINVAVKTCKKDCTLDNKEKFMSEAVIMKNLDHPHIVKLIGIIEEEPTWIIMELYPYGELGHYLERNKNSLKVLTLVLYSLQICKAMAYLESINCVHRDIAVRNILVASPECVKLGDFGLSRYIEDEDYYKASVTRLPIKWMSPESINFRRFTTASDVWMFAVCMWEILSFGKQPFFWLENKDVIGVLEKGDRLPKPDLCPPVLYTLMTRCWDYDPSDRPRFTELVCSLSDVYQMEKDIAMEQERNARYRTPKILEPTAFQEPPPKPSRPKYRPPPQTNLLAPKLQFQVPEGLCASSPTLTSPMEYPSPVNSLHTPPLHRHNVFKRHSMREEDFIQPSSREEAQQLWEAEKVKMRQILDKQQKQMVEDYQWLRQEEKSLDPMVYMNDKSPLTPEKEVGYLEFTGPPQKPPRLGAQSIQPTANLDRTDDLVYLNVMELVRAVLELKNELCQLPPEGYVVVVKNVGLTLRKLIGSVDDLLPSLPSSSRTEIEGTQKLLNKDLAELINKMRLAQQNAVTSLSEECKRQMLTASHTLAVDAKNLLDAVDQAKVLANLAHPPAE", "test": "Binding assay (PTK2B)"}, "[36]": {"target": "Insulin receptor (Homo sapiens) (UniProt P06213)", "sequence (P06213 28-758 limits assumed)": "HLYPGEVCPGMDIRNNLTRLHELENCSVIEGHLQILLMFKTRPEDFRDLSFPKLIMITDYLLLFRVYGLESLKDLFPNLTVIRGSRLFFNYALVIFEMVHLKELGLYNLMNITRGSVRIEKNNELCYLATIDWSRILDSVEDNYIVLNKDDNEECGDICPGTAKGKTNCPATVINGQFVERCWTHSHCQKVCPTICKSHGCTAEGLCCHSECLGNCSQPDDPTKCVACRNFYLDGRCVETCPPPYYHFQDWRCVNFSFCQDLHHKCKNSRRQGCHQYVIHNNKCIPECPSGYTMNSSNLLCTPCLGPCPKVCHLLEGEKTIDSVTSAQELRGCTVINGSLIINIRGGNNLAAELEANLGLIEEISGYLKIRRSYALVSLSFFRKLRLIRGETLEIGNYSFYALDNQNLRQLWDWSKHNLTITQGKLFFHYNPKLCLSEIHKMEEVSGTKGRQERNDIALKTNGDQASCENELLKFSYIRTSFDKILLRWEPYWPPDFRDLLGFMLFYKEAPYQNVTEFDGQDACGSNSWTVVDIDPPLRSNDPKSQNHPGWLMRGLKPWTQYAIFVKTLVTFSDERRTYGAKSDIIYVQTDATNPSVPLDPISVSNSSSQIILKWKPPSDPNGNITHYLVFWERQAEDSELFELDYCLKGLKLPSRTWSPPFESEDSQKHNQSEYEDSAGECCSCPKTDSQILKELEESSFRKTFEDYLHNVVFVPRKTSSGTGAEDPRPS", "sequence (P06213 763-1382 limits assumed)": "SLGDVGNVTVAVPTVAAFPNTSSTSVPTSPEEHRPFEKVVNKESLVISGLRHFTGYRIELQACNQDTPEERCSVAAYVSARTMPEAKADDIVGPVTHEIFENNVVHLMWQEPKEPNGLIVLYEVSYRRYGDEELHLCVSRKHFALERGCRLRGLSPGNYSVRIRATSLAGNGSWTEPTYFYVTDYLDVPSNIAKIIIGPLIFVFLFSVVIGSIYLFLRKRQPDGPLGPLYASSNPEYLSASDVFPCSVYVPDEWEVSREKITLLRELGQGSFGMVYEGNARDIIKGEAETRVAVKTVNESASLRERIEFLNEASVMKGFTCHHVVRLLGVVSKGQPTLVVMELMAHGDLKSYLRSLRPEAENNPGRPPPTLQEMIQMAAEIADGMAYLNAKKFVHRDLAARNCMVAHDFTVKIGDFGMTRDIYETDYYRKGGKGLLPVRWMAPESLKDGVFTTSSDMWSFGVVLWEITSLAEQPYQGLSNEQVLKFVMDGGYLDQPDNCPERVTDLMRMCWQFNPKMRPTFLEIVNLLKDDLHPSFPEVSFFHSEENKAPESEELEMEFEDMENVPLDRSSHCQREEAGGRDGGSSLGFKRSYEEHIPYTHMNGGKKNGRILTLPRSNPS"}, "[37]": {"target": "Serine/threonine-protein kinase PLK1 (Homo sapiens) (UniProt P53350)", "sequence (P53350 whole entry)": "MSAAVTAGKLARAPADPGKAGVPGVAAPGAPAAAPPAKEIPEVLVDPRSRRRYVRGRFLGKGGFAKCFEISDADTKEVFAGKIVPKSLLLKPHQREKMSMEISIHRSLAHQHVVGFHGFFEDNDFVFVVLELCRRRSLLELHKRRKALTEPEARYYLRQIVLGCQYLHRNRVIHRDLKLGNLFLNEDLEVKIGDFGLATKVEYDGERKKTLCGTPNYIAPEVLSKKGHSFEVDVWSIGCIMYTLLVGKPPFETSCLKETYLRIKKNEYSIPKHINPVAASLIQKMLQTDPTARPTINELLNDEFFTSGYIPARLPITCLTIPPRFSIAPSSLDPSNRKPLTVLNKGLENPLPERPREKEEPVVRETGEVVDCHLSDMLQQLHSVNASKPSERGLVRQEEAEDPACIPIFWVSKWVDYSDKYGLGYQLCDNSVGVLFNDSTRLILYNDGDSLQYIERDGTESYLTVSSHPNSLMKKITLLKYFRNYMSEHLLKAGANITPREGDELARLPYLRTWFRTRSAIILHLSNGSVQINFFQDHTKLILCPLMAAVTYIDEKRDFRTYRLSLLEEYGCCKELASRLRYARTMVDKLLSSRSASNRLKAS"}, "[38]": {"target": "Cyclin-dependent kinase-like 1 (Homo sapiens) (UniProt Q00532)"}, "[39]": {"conditions": "Compound concentration 100.0 nM"}, "[40]": {"conditions": "Compound concentration 1000.0 nM"}}, "note": "The source made the active and inactive calls. The calls are words filed in the database; no cut-off is given here."}
{"smiles": "CNC(=O)c1ccc(Nc2ncc(C(F)(F)F)c(NCc3nccnc3N(C)S(C)(=O)=O)n2)cc1", "note": "[DEFACTINIB]", "values": [{"measurement": "residual activity", "setting": "[1]; [39]", "value": 100, "unit": "%"}, {"measurement": "inhibition", "setting": "[2]", "value": -7.85, "unit": "%"}, {"measurement": "residual activity", "setting": "[3]; [39]", "value": 90, "unit": "%"}, {"measurement": "residual activity", "setting": "[4]; [39]", "value": 57, "unit": "%"}, {"measurement": "residual activity", "setting": "[5]; [39]", "value": 71, "unit": "%"}, {"measurement": "residual activity", "setting": "[6]; [39]", "value": 79, "unit": "%"}, {"measurement": "inhibition", "setting": "[7]", "value": -0.22, "unit": "%"}, {"measurement": "residual activity", "setting": "[8]; [39]", "value": 98, "unit": "%"}, {"measurement": "residual activity", "setting": "[9]; [39]", "value": 100, "unit": "%"}, {"measurement": "residual activity", "setting": "[10]; [39]", "value": 79, "unit": "%"}, {"measurement": "residual activity", "setting": "[11]; [39]", "value": 67, "unit": "%"}, {"measurement": "residual activity", "setting": "[12]; [39]", "value": 77, "unit": "%"}, {"measurement": "residual activity", "setting": "[13]; [39]", "value": 87, "unit": "%"}, {"measurement": "residual activity", "setting": "[14]; [39]", "value": 79, "unit": "%"}, {"measurement": "residual activity", "setting": "[15]; [39]", "value": 71, "unit": "%"}, {"measurement": "residual activity", "setting": "[16]; [39]", "value": 100, "unit": "%"}, {"measurement": "residual activity", "setting": "[17]; [39]", "value": 75, "unit": "%"}, {"measurement": "residual activity", "setting": "[18]; [39]", "value": 23, "unit": "%"}, {"measurement": "residual activity", "setting": "[19]; [39]", "value": 100, "unit": "%"}, {"measurement": "residual activity", "setting": "[20]; [39]", "value": 30, "unit": "%"}, {"measurement": "residual activity", "setting": "[21]; [39]", "value": 87, "unit": "%"}, {"measurement": "inhibition", "setting": "[22]", "value": -4.42, "unit": "%"}, {"measurement": "residual activity", "setting": "[23]; [39]", "value": 85, "unit": "%"}, {"measurement": "residual activity", "setting": "[24]; [39]", "value": 9.8, "unit": "%"}, {"measurement": "residual activity", "setting": "[25]; [39]", "value": 47, "unit": "%"}, {"measurement": "residual activity", "setting": "[26]; [39]", "value": 97, "unit": "%"}, {"measurement": "residual activity", "setting": "[27]; [39]", "value": 85, "unit": "%"}, {"measurement": "residual activity", "setting": "[28]; [39]", "value": 100, "unit": "%"}, {"measurement": "residual activity", "setting": "[29]; [39]", "value": 100, "unit": "%"}, {"measurement": "residual activity", "setting": "[30]; [39]", "value": 100, "unit": "%"}, {"measurement": "residual activity", "setting": "[31]; [39]", "value": 86, "unit": "%"}, {"measurement": "residual activity", "setting": "[32]; [39]", "value": 100, "unit": "%"}, {"measurement": "residual activity", "setting": "[33]; [39]", "value": 85, "unit": "%"}, {"measurement": "residual activity", "setting": "[34]; [39]", "value": 96, "unit": "%"}, {"measurement": "IC50", "setting": "[35]", "value": "0.2 nM (active)"}, {"measurement": "residual activity", "setting": "[36]; [39]", "value": 91, "unit": "%"}, {"measurement": "residual activity", "setting": "[37]; [39]", "value": 84, "unit": "%"}, {"measurement": "residual activity", "setting": "[38]; [39]", "value": 82, "unit": "%"}]}
{"smiles": "CN(c1ccnc(CNc2nc(Nc3ccc4c(c3)CC(=O)N4)ncc2C(F)(F)F)n1)S(C)(=O)=O", "note": "[PF-00911705]", "values": [{"measurement": "residual activity", "setting": "[1]; [40]", "value": 57, "unit": "%"}, {"measurement": "inhibition", "setting": "[2]", "value": 29.5, "unit": "%"}, {"measurement": "residual activity", "setting": "[3]; [40]", "value": 100, "unit": "%"}, {"measurement": "residual activity", "setting": "[4]; [40]", "value": 72, "unit": "%"}, {"measurement": "residual activity", "setting": "[5]; [40]", "value": 80, "unit": "%"}, {"measurement": "residual activity", "setting": "[6]; [40]", "value": 84, "unit": "%"}, {"measurement": "inhibition", "setting": "[7]", "value": 0.5, "unit": "%"}, {"measurement": "residual activity", "setting": "[8]; [40]", "value": 94, "unit": "%"}, {"measurement": "residual activity", "setting": "[9]; [40]", "value": 94, "unit": "%"}, {"measurement": "residual activity", "setting": "[10]; [40]", "value": 100, "unit": "%"}, {"measurement": "residual activity", "setting": "[11]; [40]", "value": 58, "unit": "%"}, {"measurement": "residual activity", "setting": "[12]; [40]", "value": 94, "unit": "%"}, {"measurement": "residual activity", "setting": "[13]; [40]", "value": 57, "unit": "%"}, {"measurement": "residual activity", "setting": "[14]; [40]", "value": 31, "unit": "%"}, {"measurement": "residual activity", "setting": "[15]; [40]", "value": 23, "unit": "%"}, {"measurement": "residual activity", "setting": "[16]; [40]", "value": 85, "unit": "%"}, {"measurement": "residual activity", "setting": "[17]; [40]", "value": 63, "unit": "%"}, {"measurement": "residual activity", "setting": "[18]; [40]", "value": 40, "unit": "%"}, {"measurement": "residual activity", "setting": "[19]; [40]", "value": 91, "unit": "%"}, {"measurement": "residual activity", "setting": "[20]; [40]", "value": 21, "unit": "%"}, {"measurement": "residual activity", "setting": "[21]; [40]", "value": 78, "unit": "%"}, {"measurement": "inhibition", "setting": "[22]", "value": -3.55, "unit": "%"}, {"measurement": "residual activity", "setting": "[23]; [40]", "value": 65, "unit": "%"}, {"measurement": "residual activity", "setting": "[24]; [40]", "value": 15, "unit": "%"}, {"measurement": "residual activity", "setting": "[25]; [40]", "value": 17, "unit": "%"}, {"measurement": "residual activity", "setting": "[26]; [40]", "value": 12, "unit": "%"}, {"measurement": "residual activity", "setting": "[27]; [40]", "value": 82, "unit": "%"}, {"measurement": "residual activity", "setting": "[28]; [40]", "value": 100, "unit": "%"}, {"measurement": "residual activity", "setting": "[29]; [40]", "value": 94, "unit": "%"}, {"measurement": "residual activity", "setting": "[30]; [40]", "value": 66, "unit": "%"}, {"measurement": "residual activity", "setting": "[31]; [40]", "value": 84, "unit": "%"}, {"measurement": "residual activity", "setting": "[32]; [40]", "value": 99, "unit": "%"}, {"measurement": "residual activity", "setting": "[33]; [40]", "value": 87, "unit": "%"}, {"measurement": "residual activity", "setting": "[34]; [40]", "value": 75, "unit": "%"}, {"measurement": "IC50", "setting": "[35]", "value": "721 nM (not active)"}, {"measurement": "residual activity", "setting": "[36]; [40]", "value": 100, "unit": "%"}, {"measurement": "residual activity", "setting": "[37]; [40]", "value": 7.6, "unit": "%"}, {"measurement": "residual activity", "setting": "[38]; [40]", "value": 61, "unit": "%"}]}
